Data published in PMC5893132, “Selective inhibition of histamine-evoked Ca^2+ signals by compartmentalized cAMP in human bronchial airway smooth muscle cells” (Cell Calcium, 2018).
Counter-ions that a name gives are not always drawn. No end group written: not given here. *: point of attachment. Myristoyl = CCCCCCCCCCCCCC(=O)*

Experiments:
Assay type in all cases: cell-based, human
[1] = tested on: histamine-evoked Ca^2+ signals in hBASMCs; experiment: Histamine-evoked Ca2+ signals in populations of fluo-4-loaded hBASMCs; details: for effect on the inhibition of histamine-evoked Ca2+ signals by a maximally effective concentration of isoproterenol / effect on the sensitivity to isoproterenol of histamine-evoked Ca2+ signals: inhibitor pre-treatment 30 min, then isoproterenol 1 min; for effect on histamine-evoked Ca2+ signals: pre-treatment: 8-Br-cGMP, IBMX 20 min, forskolin 10 μM, NKH477 10 μM, butaprost 10 μM, TCS2510 1 μM 5 min
Protocol: (§1) Two methods were used to measure [Ca^2+]i in populations of hBASMCs. For measurements using a FlexStation III plate-reader (Molecular Devices, Sunnyvale, CA, USA), hBASMCs were seeded into 96-well plates (10^4 cells per well). After about 4 days, when the cells were confluent, the medium was replaced with SMGM-2 without serum or growth factor supplements, and the cells were used after a further 24 h. This period in serum-free medium increased by about 2-fold the amplitude of the increases in [Ca^2+]i evoked by histamine (results not shown). Cells were washed with HEPES-buffered saline (HBS: 135 mM NaCl, 5.9 mM KCl, 1.2 mM MgCl2, 1.5 mM CaCl2, 11.6 mM HEPES, 11.5 mM D-glucose, pH 7.3), and loaded with fluo-4 by incubation with fluo-4-AM (2 μM) in HBS (100 μL per well) containing pluronic F127 (0.02%, v/v) and probenecid (2.5 mM). After 1 h at 20 °C, the medium was replaced with HBS (100 μL per well) containing probenecid (2.5 mM). After a further incubation at 20 °C for 1 h, the medium was replaced with HBS (60–80 μL per well) or nominally Ca^2+-free HBS, and the cells were used immediately for experiments at 20 °C. In some experiments, BAPTA (2.5 mM) was added to HBS during the recording; this reduced the free [Ca^2+] of the HBS to ∼120 nM without affecting the pH. Drug additions (20 μL at 4 or 5 times the final concentration) were added automatically. Fluorescence from fluo-4 (excitation 485 nm, emission 525 nm) was recorded at 1.44-s intervals using Softmax Pro 5.4 (Molecular Devices). Fluorescence was calibrated to [Ca^2+]i from: [Ca^2+]i=KDCa×(F−Fmin/Fmax−F) where, KDCa is the equilibrium dissociation constant of fluo-4 for Ca^2+ (345 nM), F is the recorded fluorescence, and Fmin and Fmax are the fluorescence values recorded after addition of triton-X-100 (0.1%, v/v) with either BAPTA (10 mM, Fmin) or CaCl2 (10 mM, Fmax). Although treatment with triton-X-100 releases fluo-4 from cells into the medium, the fluo-4 fluorescence is captured with the same efficiency whether it is trapped within cells or dispersed within the small volume of the wells (unpublished observations). Fmax was determined for each well at the end of an experiment, and the average value was used for each column of 8 wells. Fmin was determined from parallel wells on each plate.
(§2) For measurements of [Ca^2+]i using an FDSS 7000 FLIPR (Hamamatsu), hBASMCs were seeded into 384-well plates (8000 cells per well) in 20 μL of SMGM-2 containing 5% serum. After 24 h, the medium was replaced with 15 μL of serum-free SMGM-2, and after a further 6 h the cells were loaded with Ca^2+ indicator by addition of FLIPR calcium 4 assay kit (Molecular Devices) supplemented with probenecid (2.5 mM). The exact composition of this ‘no-wash’ indicator kit is not disclosed by the manufacturer, but it contains fluo-4-AM and components that reduce background fluorescence. The manufacture’s stock solution was diluted 10-fold into HBSS containing BSA (0.1%, w/v) and HEPES (20 mM); 5 μL of this solution was then added to each well (containing 15 μL of serum-free SMGM-2). After 2 h at 37 °C in humidified air containing 5% CO2, the plate was used for experiments at 20 °C. Most additions (5 μL) were prepared in HBSS supplemented with HEPES (20 mM) and BSA (0.1%, w/v). For more prolonged incubations, drugs were diluted in the initial loading medium (to avoid changes in dye-loading during the ‘no wash’ protocol). Fluorescence signals (excitation at 480 nm, emission at 540 nm) were calibrated to [Ca^2+]i after measurement of Fmin and Fmax uniquely for each well, using a KDCa = 345 nM.
(§3) All concentration-effect relationships were determined by addition of different drug concentrations to individual wells in the same multi-well plate, rather than by sequential additions to the same well. […]

[2] = tested on: intracellular cAMP in hBASMCs; experiment: Intracellular cAMP in hBASMCs by [3H]-adenine labeling; details: 5 min in HBS, TCS2510 1 μM; for effect on intracellular cAMP: PGE2 10 μM, butaprost 10 μM, [3H]-adenine labeling
Protocol: hBASMCs in 24-well plates (50,000 cells per well) were grown to confluence. The medium was then replaced with serum-free SMGM-2, and after 24 h this was supplemented with [^3H]-adenine (1 μCi per well, 18.4 Ci·mmol^−1). After 2 h at 37 °C in humidified air with 5% CO2, the medium was removed, and the cells were washed twice with HBS. The cells were stimulated at 20 °C in HBS. Incubations were terminated by removal of the medium, addition of ice-cold trichloroacetic acid (5%, 1 mL) and rapid freezing. This protocol ensured that only intracellular [^3H]-cAMP was detected. [^3H]-adenine nucleotides were separated by column chromatography, and the activity was determined by liquid scintillation counting using Ultra-gold scintillant. Results are presented as [^3H]-cAMP activity as a percentage of the sum of the activities of the fractions containing [^3H]-cAMP, [^3H]-ATP, [^3H]-ADP and [^3H]-AMP; henceforth, reported as [^3H]-cAMP (%).

hBASMCs = experiment: Increase in [Ca2+]i evoked directly by stimuli in fluo-4-loaded hBASMCs; details: for increase in [Ca2+]i evoked by the substance itself: hBASMCs from donors 1-3, PGE2 and sulprostone in Ca2+-free HBS; for effect of removal of extracellular Ca2+ on the peak increase in [Ca2+]i evoked by the stimulus: HBS vs Ca2+-free HBS (2.5 mM BAPTA added 37 s before the stimulus)
Protocol: as §1, §2, §3

**Q.** What does the source list for `CCCCCCOC(=O)[C@]1(O)C[C@@H]2O[C@@]1(C)n1c3ccccc3c3c4c(c5c6ccccc6n2c5c31)C(=O)NC4` [KT5720, (9R,10S,12S)-2,3,9,10,11,12-hexahydro-10-hydroxy-9-methyl-1-oxo-9,12-epoxy-1H-diindolo[1,2,3-fg:3′,2′,1′-kl]pyrrolo[3,4-i][1,6]benzodiazocine-10-carboxylic acid, hexyl ester]?
**A.** effect on the inhibition of histamine-evoked Ca2+ signals by a maximally effective concentration of isoproterenol ([1]; histamine 10 μM, n = 9): had no significant effect; effect on the sensitivity to isoproterenol of histamine-evoked Ca2+ signals ([1]; histamine 10 μM, n = 9): Neither KT5720 nor PKI-myr significantly affected

**Q.** With `CCCCC[C@H](O)/C=C/[C@H]1[C@H](O)CC(=O)[C@@H]1C/C=C\CCCC(=O)O` [PGE2, prostaglandin E2] as the molecule, how does the “effect on intracellular cAMP” value [2] read?
**A.** stimulated cAMP accumulation

**Q.** What about the “increase in [Ca2+]i evoked by the substance itself” value (from here on “increase … by the substance itself”) (hBASMCs) of the same molecule?
**A.** directly evoked a significant increase in [Ca^2+]i

**Q.** With `C=C[C@@]1(C)CC(=O)[C@]2(O)[C@@]3(C)[C@@H](O)CCC(C)(C)[C@@H]3C(OC(=O)CCN(C)C)[C@H](OC(C)=O)[C@@]2(C)O1.Cl` (stereo partly drawn) [NKH477, N,N-dimethyl-(3R,4aR,5S,6aS,10S,10aR,10bS)-5-(acetyloxy)-3-ethenyldodecahydro-10,10b-dihydroxy-3,4a,7,7,10a-pentamethyl-1-oxo-1H-naphtho[2,1-b]pyran-6-yl ester β-alanine hydrochloride] as the molecule, how does the “effect on histamine-evoked Ca2+ signals” value [1] read?
**A.** mimicked the effect of isoproterenol

**Q.** For `C[N+](C)(C)CCOC(N)=O` [carbachol, carbamylcholine chloride], which “effect of removal of extracellular Ca2+ on the peak increase in [Ca2+]i evoked by the stimulus” value (hBASMCs) is on record?
**A.** unaffected

**Q.** And the “increase … by the substance itself” value (hBASMCs)?
**A.** cells from only one other donor responded robustly to carbachol (donor 2)

**Q.** How did the “amplitude of the Ca2+ signals evoked by histamine, % of paired controls” value ([1]; 300 μM pre-treatment, histamine 10 μM) turn out when `CO[C@@H]1[C@@H]2OP(=O)(O)OC[C@H]2O[C@H]1n1c(Sc2ccc(Cl)cc2)nc2c(N)ncnc21` [8-pCPT-2′-O-Me-cAMP] was run?
**A.** 103 ± 8%

**Q.** With `Nc1ncnc2c1nc(Br)n2[C@@H]1O[C@@H]2COP(=O)(O)O[C@H]2[C@H]1O` [8-Br-cAMP] as the molecule, how does the “pIC50 for inhibition of histamine-evoked Ca2+ signals” value ([1]; pre-treatment 20 min, histamine 10 μM, n = 6) read?
**A.** 3.32 ± 0.16

**Q.** How did the “effect on the concentration-dependent inhibition of histamine-evoked Ca2+ signals by isoproterenol” value ([1]; ESI-05 25 μM, 30 min in HBS, histamine 10 μM added 1 min after isoproterenol, n = 9) turn out when `Cc1ccc(S(=O)(=O)c2c(C)cc(C)cc2C)cc1` [ESI-05, 4-methylphenyl-2,4,6-trimethylsulphone] was run?
**A.** had no effect

**Q.** What does the source list for `O=C1CC[C@H](C=C[C@@H](O)Cc2ccccc2)N1CCCCCCc1nn[nH]n1` [TCS2510, (5R)-5-[(3S)-3-hydroxy-4-phenyl-1-buten-1-yl]-1-[6-(2H-tetrazol-5-yl)hexyl]-2-pyrrolidinone]?
**A.** effect on intracellular cAMP [2]: stimulated formation of cAMP; production of cAMP at maximal concentration compared with forskolin, NKH477, isoproterenol or butaprost ([2]; equally effective in inhibiting histamine-evoked Ca2+ signals): far less; increase in [Ca2+]i evoked by the substance itself (hBASMCs): Neither butaprost nor TCS2510 evoked an increase in [Ca^2+]i; effect on histamine-evoked Ca2+ signals [1]: inhibited the Ca^2+ signals evoked by histamine

**Q.** Which results are given for `Nc1ncnc2c1nc(Sc1ccc(Cl)cc1)n2[C@@H]1O[C@@H]2COP(O)(=S)O[C@H]2[C@H]1O` (stereo partly shown) [Rp-8-CPT-cAMPS, Rp-8-CPT-cAMPs]?
**A.** effect on the inhibition of histamine-evoked Ca2+ signals by a maximally effective concentration of isoproterenol ([1]; histamine 10 μM, n = 9): had no significant effect; effect on the sensitivity to isoproterenol of histamine-evoked Ca2+ signals ([1]; histamine 10 μM, n = 9): significant decrease in the sensitivity to isoproterenol, but the effect was small

**Q.** Which “increase … by the substance itself” value (hBASMCs) does the source give for `Cn1c(=O)c2c(ncn2C)n(C)c1=O` [caffeine] here?
**A.** A lack of response

**Q.** `NCCc1c[nH]cn1` [histamine, Histamine dihydrochloride] was tested. Which “effect of removal of extracellular Ca2+ on the peak increase in [Ca2+]i evoked by the stimulus” value (hBASMCs) did it give?
**A.** unaffected

**Q.** And the EC50 (hBASMCs; Homo sapiens, histamine alone, HBSS, n = 7, read-out: sensitivity to histamine (pEC50) (converted))?
**A.** 1050 nM

**Q.** What about the “increase … by the substance itself” value (hBASMCs) of the same molecule?
**A.** Cells from all three donors responded

**Q.** What about the “maximal amplitude of the peak increase in [Ca2+]i evoked by histamine” value (hBASMCs; histamine alone, HBSS, n = 7) of the same molecule?
**A.** 242 ± 15 nM

**Q.** Which “effect on the inhibition of histamine-evoked Ca2+ signals by a maximally effective concentration of isoproterenol” value ([1]; histamine 10 μM, n = 9) does the source give for `Cl.Cl.O=S(=O)(NCCNCC=Cc1ccc(Br)cc1)c1cccc2cnccc12` [H89, N-[2-[[3-(4-bromophenyl)-2-propenyl]amino]ethyl]-5-isoquinolinesulfonamide dihydrochloride] here?
**A.** had no significant effect

**Q.** And the “effect on the sensitivity to isoproterenol of histamine-evoked Ca2+ signals” value ([1]; histamine 10 μM, n = 9)?
**A.** significantly reduced the sensitivity to isoproterenol

**Q.** Which “increase … by the substance itself” value (hBASMCs) does the source give for `CS(=O)(=O)NC(=O)CCC/C=C\C[C@H]1C(=O)C[C@@H](O)[C@@H]1/C=C/[C@@H](O)COc1ccccc1` [sulprostone, Sulprostone] here?
**A.** also evoked an increase in [Ca^2+]i

**Q.** With “bradykinin acetate (RPPGFSPFR; also: acetate salt; UniProt P01042 381-389, looked up)” as the molecule, how does the “effect of removal of extracellular Ca2+ on the peak increase in [Ca2+]i evoked by the stimulus” value (hBASMCs) read?
**A.** unaffected

**Q.** What about the “increase … by the substance itself” value (hBASMCs) of the same molecule?
**A.** Cells from all three donors responded

**Q.** For `Nc1ncnc2c1ncn2[C@@H]1O[C@H](COP(=O)(O)OP(=O)(O)OP(=O)(O)O)[C@@H](O)[C@H]1O` [ATP], which “increase … by the substance itself” value (hBASMCs) is on record?
**A.** cells from only one donor responded robustly to ATP (donor 3)

**Q.** With `O=C(Nc1ncnc2c1ncn2[C@@H]1O[C@@H]2COP(=O)(O)OC2C1O)c1ccccc1` (stereo in doubt) [6-Bnz-cAMP] as the molecule, how does the “amplitude of the Ca2+ signals evoked by histamine, % of paired controls” value ([1]; 500 μM, 20 min pre-treatment, histamine 10 μM, n = 5) read?
**A.** 54 ± 4%

**Q.** With “myristoylated protein kinase inhibitor 14–22 amide (Myristoyl-SGRTGRRNA-NH2; SMILES CCCCCCCCCCCCCC(=O)N[C@@H](CO)C(=O)NCC(=O)N[C@@H](CCCNC(=N)N)C(=O)N[C@H](C(=O)NCC(=O)N[C@@H](CCCNC(=N)N)C(=O)N[C@@H](CCCNC(=N)N)C(=O)N[C@@H](CC(N)=O)C(=O)N[C@@H](C)C(N)=O)[C@@H](C)O; UniProt P61925 14-22, looked up, fragment) [PKI-myr]” as the molecule, how does the “effect on the inhibition of histamine-evoked Ca2+ signals by a maximally effective concentration of isoproterenol” value ([1]; histamine 10 μM, n = 9) read?
**A.** had no significant effect

**Q.** What about the “effect on the sensitivity to isoproterenol of histamine-evoked Ca2+ signals” value ([1]; histamine 10 μM, n = 9) of the same molecule?
**A.** Neither KT5720 nor PKI-myr significantly affected

**Q.** With 18:1 lysophosphatidic acid [LPA] as the molecule, how does the “increase … by the substance itself” value (hBASMCs) read?
**A.** Cells from all three donors responded
